Test results: patent US6262017A, “Peptides for altering osteoblast adhesion” (Research Corporation Technologies, Inc., priority 1998, dated 2001)
Values belong to the compound of their own block, whether it stands above or below them. Peptide text beside a SMILES is read from it.

Tests used:
osteoblasts [1] = assay: Osteoblast four-hour adhesion on peptide-modified glass substrates; format: cell-based
Text: Using standard protocols, 3-aminopropyltriethoxysilane was used to immobilize exposed amine groups on the surfaces of glass substrates, and 1-ethyl-3-(3dimethylaminopropyl)carbodimide was used to bind peptides having the sequence KRSRGGG (SEQ ID NO:4) to the exposed amine groups on the glass substrates.
(§1) Peptides were immobilized on substrate surfaces (borosilicate glass, 18 mm round coverslips; Fisher) using silane coupling techniques adapted from published protocols [Weetall Applied Biochem. Biotech. 41, 158-188 (1993); Robinson et al. Biochim. Biophys. Acta 242, 659-661 (1971); and Baum et al. Biochim. Biophys. Acta 268, 411-414 (1972)], the disclosures of which are incorporated herein by reference. Briefly, 3-aminopropyltriethoxysilane (Sigma) was allowed to react with hydroxyl groups on the material surfaces to produce "aminophase" substrates.
(§2) In preparing for peptide immobilization, borosilicate glass coverslips (Fisher) were etched for one hour in a 3:1 (v/v) solution of 2 N sulfuric acid and 2 N nitric acid, degreased in acetone and ethanol, and rinsed with distilled water. The degreased and acid-etched substrates were placed in glass petri dishes which had been previously cleaned with a 3.5% solution of 30% hydrogen peroxide in 18 M sulfuric acid.
(§3) The substrates were dried at 160° C. for at least one hour, rinsed with dry acetone, and immersed in 2% 3-aminopropyltriethoxysilane in dry acetone, supplemented with 2% triethylamine under an argon atmosphere at […] for one hour. The substrates were rinsed (under an argon atmosphere) once with methylene chloride and twice with dry acetone, and cured under argon at 120° C. for three hours.
(§4) Peptides were covalently bound to immobilized exposed amine groups on the substrate surfaces during a twenty-minute incubation (under argon) with a 25:25:1 (v/v/v) solution of peptide (0.1 mM in dry N,N-dimethylformamide):1-ethyl-3-(3-dimethylaminopropyl)carbodiimide (2.5 mg/mL in dry N,N-dimethylformamide): n-ethylmorpholine. Unreacted amine groups were passivated by soaking peptide-modified substrates in acetic anhydride for 5 minutes; absorbed peptides were then removed by soaking for 5 minutes in 4 M urea, rinsing in distilled water, and soaking for 5 minutes in 1 M sodium chloride. Peptide-modified substrates were then thoroughly rinsed in distilled water prior to sterilization and use.
(§5) Substrates which had been etched in a 3:1 (v/v) solution of 2 N sulfuric acid: 2 N nitric acid, degreased in acetone and ethanol, and rinsed copiously with distilled water were used as references. Glass substrates were sterilized via overnight ultraviolet irradiation prior to use in experiments.

[2] = test system: bone marrow derived (BMD) osteoblast-like cells; assay: Bone marrow-derived osteoblast-like cell four-hour adhesion on peptide-modified glass; format: cell-based; settings: Table 2, peptide immobilized on glass
Text: as §1, §2
as §3, with “hours. […]” for “hours.”

[3] = test system: BMD osteoclasts (bone-resorbing cells); assay: Four-hour adhesion of Table 3 (title: BMD osteoblast-like cell; text: BMD osteoclasts) on peptide-modified glass; format: cell-based; settings: for Cell density, Average: Table 3, four-hour adhesion, peptide immobilized on glass
Text: as §1, §2, §3
as §4, with “use. […]” for “use.”

endothelial cells = assay: Endothelial cell four-hour adhesion on peptide-modified glass; format: cell-based; settings: for Cell density, Average: four-hour adhesion, peptide immobilized on glass
Text: as §1, §2, §3, §4
as §5, with “In all experiments performed in the present invention, substrates which had been aminated but not peptide-grafted (i.e., aminophase substrates) were used as controls. Substrates” for “Substrates”

calvarial osteoblasts = assay: Calvarial osteoblast two-hour competitive adhesion on KRSRGGG-modified substrates after pre-incubation with soluble peptide; format: cell-based
[4] = test system: BMD osteoblast-like cells; assay: BMD osteoblast-like two-hour competitive adhesion on KRSRGGG-modified substrates; format: cell-based
Experimental: The effect of pre-incubation of BMD osteoblast-like and osteoclast-like cells was also examined with similar results (Tables 8 and 9).

osteoblasts [5] = assay: Osteoblast four-hour adhesion in the absence and presence of 0.2 U/ml heparinase; format: cell-based; settings: for Cell density, Average: Table 10, four-hour adhesion
Text: The heparinase used degrades heparan sulfate in a very selective manner.
as §1, §2, §3, §4
as §5, with “In all experiments performed in the present invention, substrates which had been aminated but not peptide-grafted (i.e., aminophase substrates) were used as controls. Substrates” for “Substrates”

fibroblasts = assay: Fibroblast adhesion on peptide-modified surfaces; format: cell-based; settings: surfaces modified with peptide
osteoblasts [6] = settings: cultured for two weeks on peptide-modified Ti-6Al-4V
Text: In the present study, medical grade Ti-6Al-4V stock (ASTM F-136; Osteonics) was sectioned into coupons using a low-speed saw equipped with a diamond wafering blade. The metal coupons were then polished to a 30 micron finish via sanding (using 600 grit paper on a sanding wheel), polishing to a 15 micron finish and then to a 9 micron finish (using diamond spray on a polishing wheel), and finally polishing to a 3 micron finish using aluminum oxide (Al2 O3) mixed with 30% hydrogen peroxide on a polishing wheel), according to standard techniques. Polished metal coupons were degreased with acetone and ethanol and rinsed copiously with distilled water before peptides were immobilized on the metal surfaces (via the aforementioned techniques).

[7] = Table 1, peptide immobilized on glass
[8] = Table 6, KRSR peptides of different lengths on glass
[9] = Table 4 (second, identical print)
[10] = Table 8, peptide concentration 0.5 mM
[11] = Table 8, peptide concentration 1.0 mM
[12] = Table 8, peptide concentration 1.5 mM
[13] = Table 8, peptide concentration 2.0 mM

Effect of heparinase treatment on osteoblast adhesion (in words) (osteoblasts [5]; heparinase treatment, peptide-modified substrate): significantly inhibited adhesion
Compound: N=C(N)NCCC[C@H](NC(=O)[C@H](CO)NC(=O)[C@H](CCCNC(=N)N)NC(=O)[C@@H](N)CCCCN)C(=O)NCC(=O)NCC(=O)NCC(=O)O [KRSRGGG, H-Lys-Arg-Ser-Arg-(Gly)3 --OH] (H-KRSRGGG-OH)
Cell density, Average (osteoblasts [1]; [7]): 2145 Cells/cm^2 | Cell density, Average (osteoblasts [1]; [8]): 1770 Cells/cm^2 | Cell density, Average [2]: 2332 Cells/cm^2 | Cell density, Average [3]: 2377 Cells/cm^2 | BMD osteoclast adhesion versus other treated or untreated surfaces (in words) ([3]; peptide-modified surfaces): in greater numbers | Cell density, Average (endothelial cells; Table 4 (first print)): 1600 Cells/cm^2 | Cell density, Average (endothelial cells; [9]): 1600 Cells/cm^2 | Endothelial cell adhesion to peptide-modified surfaces (in words) (endothelial cells; surfaces modified with peptide): do not adhere in significantly greater numbers | Effect of pre-incubation of osteoblasts with peptide on adhesion to KRSR-modified substrate (in words) (calvarial osteoblasts): significant decrease in adhesion | Cell Adhesion expressed as % control [4, 10]: 81.63 % control | Cell Adhesion expressed as % control [4, 11]: 78.91 % control | Cell Adhesion expressed as % control [4, 12]: 66.67 % control | Cell Adhesion expressed as % control [4, 13]: 55.5 % control | Cell density, Average (osteoblasts [5]; Heparinase 0.2 U/ml): 330 Cells/cm^2 | Cell density, Average (osteoblasts [5]; Heparinase none): 2145 Cells/cm^2 | Fibroblast adhesion to peptide-modified surfaces (in words) (fibroblasts): do not adhere in significantly greater numbers

Compound: N=C(N)NCCC[C@H](NC(=O)[C@H](CO)NC(=O)[C@H](CO)NC(=O)[C@@H](N)CCCCN)C(=O)NCC(=O)NCC(=O)NCC(=O)O [KSSRGGG, Lysine-Serine-Serine-Arginine-Glycine-Glycine-Glycine, reference compound] (H-KSSRGGG-OH)
Cell Adhesion expressed as % control [4, 10]: 109.52 % control | Cell Adhesion expressed as % control [4, 11]: 93.65 % control | Cell Adhesion expressed as % control [4, 12]: 101.59 % control | Cell Adhesion expressed as % control [4, 13]: 107.94 % control

Compound: H-Lys-Arg-Ser-Arg-OH (H-KRSR-OH)
Cell density, Average (osteoblasts [1]; Table 5, KRSR vs HHWH on glass): 1508 Cells/cm^2 | Cell density, Average (osteoblasts [1]; [8]): 1508 Cells/cm^2

Compound: Histidine-Histidine-Tryptophan-Histidine (HHWH) [reference compound]
Cell density, Average (osteoblasts [1]; Table 5, KRSR vs HHWH on glass): 1080 Cells/cm^2

Compound: Arginine-Aspartic Acid-Glycine-Serine [RDGS, reference compound]
Cell density, Average (osteoblasts [1]; [7]): 1656 Cells/cm^2 | Cell density, Average [2]: 1712 Cells/cm^2 | Cell density, Average [3]: 2188 Cells/cm^2 | Cell density, Average (endothelial cells; Table 4 (first print)): 1570 Cells/cm^2 | Cell density, Average (endothelial cells; [9]): 1570 Cells/cm^2 | Cell density, Average (osteoblasts [5]; Heparinase 0.2 U/ml): 378 Cells/cm^2 | Cell density, Average (osteoblasts [5]; Heparinase none): 1656 Cells/cm^2 | Osteoblast morphology and cytoskeletal organization (osteoblasts [6]): normal morphology and cytoskeletal organization

Compound: KRSRQGGGGG [KRSR peptide of a different (longer) spacer length attached to the substrate]
Cell density, Average (osteoblasts [1]; [8]): 1708 Cells/cm^2
